Laboratory results reported in patent publication US20220151989A1, “LIPOIC ACID PRODRUG” (SANTEN PHARMACEUTICAL CO., LTD., priority 2019, published 2022).

Legend:
[1] = test system: anterior segment of the eye; assay: Ocular Irritation Test-2: McDonald-Shadduck method, lens observation, histopathological examination; assay type: in vivo, Japanese White rabbit; design: key to Irritation Score of anterior segment of the eye: Discharge / Irritation Score of anterior segment of the eye: Anterior chamber flare / Irritation Score of anterior segment of the eye: Light reflex / Irritation Score of anterior segment of the eye: Iris / Irritation Score of anterior segment of the eye: Corneal opacity / Irritation Score of anterior segment of the eye: Angiogenesis / Irritation Score of anterior segment of the eye: Corneal epithelial disorder / Lens / Histopathological examination of the eye / Irritation Score of anterior segment of the eye: Conjunctival hyperemia / Irritation Score of anterior segment of the eye: Conjunctival edema: +0.5: very slight; +1: slight; +2: moderate; +3: severe; —: No noteworthy findings; conditions: for Histopathological examination of the eye / Irritation Score of anterior segment of the eye: Angiogenesis / Irritation Score of anterior segment of the eye: Anterior chamber flare / Irritation Score of anterior segment of the eye: Conjunctival edema / Irritation Score of anterior segment of the eye: Conjunctival hyperemia / Irritation Score of anterior segment of the eye: Corneal epithelial disorder / Irritation Score of anterior segment of the eye: Corneal opacity / Irritation Score of anterior segment of the eye: Discharge / Irritation Score of anterior segment of the eye: Iris / Irritation Score of anterior segment of the eye: Light reflex / Lens: 50 μL/eye twice per day for 2 weeks
Method: Compound 1 was stirred with the addition of Vehicle C to give a 0.3% (w/v) solution, and the resulting solution was diluted with Vehicle C to give a 0.1% (w/v) solution. Further, the resulting 0.1% (w/v) solution was diluted with. Vehicle C to give a 0.03% (w/v) solution.
0.03% (w/v), 0.1% (w/v), and 0.3% (w/v) Compound 1 eye drops were each instilled into the left eye of a Japanese White rabbit at a dose of 50 μL/eye with pipette twice per day at a 6-hour interval for 2 weeks. One hour after the final instillation, ocular irritation of anterior segment of the eye was evaluated using a slit lamp according to the McDonald-Shadduck method, and the lens was observed. At the end of the treatment period, histopathological examination of the eye was performed. The contralateral eye was untreated.
The ocular irritation of anterior segment of the eye was scored according to the following criteria:
+1: slight; +2: moderate; +3: severe.

lens elasticity = assay: Pharmacological Test-3: lens elasticity, Compounds 5 and 6, 3 times per day for 14 days; assay type: in vivo,  mice
Method: The effects of Compounds 5 and 6 on the lens elasticity were investigated.
Compound 5 was stirred with the addition of Vehicle C to give a 0.03% (w/v) solution.
Compound 6 was stirred with the addition of Vehicle C to give a 0.03% (w/v) solution.
EV06 was stirred with the addition of Vehicle C to give a 0.03% (w/v) solution, which was used for comparison to the samples of Compounds 5 and 6.
1) Each test sample (2.5 μL/eye) was instilled into both eyes of 9-month-old […] mice with a Pipetman 3 times per day (around 9:00, 13:00 and 17:00) for 14 days. 2) After the final instillation, the mice were euthanized by carbon dioxide inhalation, and then the eyeballs were extracted and rinsed with Hank's balanced salt solution (HESS). 3) The sclera near the optic nerve was cut with a razor, the lens was removed through the incision, and the removed lens was immersed in HESS. 4) The lens was placed on a glass slide, and an all-in-one fluorescence microscope BZ-9000 (Keyence) was used to capture an image of the lens (Image a). 5) Next, one cover glass (Corning^(registered trade mark) 22×22 mm Square) was placed on the lens, and an image in which the thickness of the lens changed due to the weight was similarly captured (Image b). 6) A change in the lens diameter was calculated from the following Equation 1 wherein the lens diameter of Image a is subtracted from the lens diameter of Image b. Then, the lens elasticity improvement of each sample group compared with the vehicle control group was calculated from Equation 2 described below. The mean value of the vehicle control group was based on 8 eyes, and the mean value of each of the sample groups of Compounds 5 and 6 and EV06 was based on 10 eyes.
Change in lens diameter=Lens diameter in Image b of each test sample−Lens diameter in Image a of each test sample (Equation 1)
Lens elasticity improvement of each sample group=Mean change in lens diameter of each Test sample group−Mean change in lens diameter of Vehicle control group (Equation 2)

For CC(C)=CCOC(=O)CCCC[C@@H]1CCSS1 [Compound 1, 3-Methyl-2-buten-1-yl (R)-5-(1,2-dithiolan-3-yl)pentanoate], the “Histopathological examination of the eye” value ([1]; 0.03% eye drop) was “—”, the “Irritation Score of anterior segment of the eye: Angiogenesis” value (from here on “Irritation Score … Angiogenesis”) ([1]; 0.03% eye drop) was “—” and the “Irritation Score of anterior segment of the eye: Anterior chamber flare” value (“Irritation Score … Anterior chamber flare” below) ([1]; 0.03% eye drop) was “—”. The “Irritation Score of anterior segment of the eye: Conjunctival edema” value (“Irritation Score … Conjunctival edema” for short) ([1]; 0.03% eye drop) was “—”, the “Irritation Score of anterior segment of the eye: Conjunctival hyperemia” value (from here on “Irritation Score … Conjunctival hyperemia”) ([1]; 0.03% eye drop) was “—” and the “Irritation Score of anterior segment of the eye: Corneal epithelial disorder” value (from here on “Irritation Score … Corneal epithelial disorder”) ([1]; 0.03% eye drop) was “—”. For the same molecule, the “Irritation Score of anterior segment of the eye: Corneal opacity” value (shortened to “Irritation Score … Corneal opacity”) ([1]; 0.03% eye drop) was “—”, the “Irritation Score of anterior segment of the eye: Discharge” value (“Irritation Score … Discharge” below) ([1]; 0.03% eye drop) was “—” and the “Irritation Score of anterior segment of the eye: Iris” value (“Irritation Score … Iris” below) ([1]; 0.03% eye drop) was “—”. The “Irritation Score of anterior segment of the eye: Light reflex” value (shortened to “Irritation Score … Light reflex”) ([1]; 0.03% eye drop) was “—”, the Lens ([1]; 0.03% eye drop) was “—” and the “ocular irritation” value ([1]; 0.03%, 0.1% and 0.3% eye drops, twice per day for 2 weeks) was “No ocular irritation was observed”. The “Histopathological examination of the eye” value ([1]; 0.1% eye drop) was “—”, the “Irritation Score … Angiogenesis” value ([1]; 0.1% eye drop) was “—” and the “Irritation Score … Anterior chamber flare” value ([1]; 0.1% eye drop) was “—”. The “Irritation Score … Conjunctival edema” value ([1]; 0.1% eye drop) was “—”, the “Irritation Score … Conjunctival hyperemia” value ([1]; 0.1% eye drop) was “—” and the “Irritation Score … Corneal epithelial disorder” value ([1]; 0.1% eye drop) was “—”. The “Irritation Score … Corneal opacity” value ([1]; 0.1% eye drop) was “—”, the “Irritation Score … Discharge” value ([1]; 0.1% eye drop) was “—” and the “Irritation Score … Iris” value ([1]; 0.1% eye drop) was “—”. For the same molecule, the “Irritation Score … Light reflex” value ([1]; 0.1% eye drop) was “—”, the Lens ([1]; 0.1% eye drop) was “—” and the “Histopathological examination of the eye” value ([1]; 0.3% eye drop) was “—”. The “Irritation Score … Angiogenesis” value ([1]; 0.3% eye drop) was “—”, the “Irritation Score … Anterior chamber flare” value ([1]; 0.3% eye drop) was “—” and the “Irritation Score … Conjunctival edema” value ([1]; 0.3% eye drop) was “—”. For the same molecule, the “Irritation Score … Conjunctival hyperemia” value ([1]; 0.3% eye drop) was “—”, the “Irritation Score … Corneal epithelial disorder” value ([1]; 0.3% eye drop) was “—” and the “Irritation Score … Corneal opacity” value ([1]; 0.3% eye drop) was “—”. The “Irritation Score … Discharge” value ([1]; 0.3% eye drop) was “—”, the “Irritation Score … Iris” value ([1]; 0.3% eye drop) was “—” and the “Irritation Score … Light reflex” value ([1]; 0.3% eye drop) was “—”. The Lens ([1]; 0.3% eye drop) was “—”.
With C[N+](C)(C)CCOC(=O)CCCC[C@@H]1CCSS1.[Cl-] [EV06, Lipoic acid choline ester, reference compound] the Lens elasticity improvement (lens elasticity; 0.03% (w/v) solution in Vehicle C, both eyes, 3 times per day for 14 days, 9-month-old mice) was 3.6 μm and the “lens elasticity improving effect” value (lens elasticity; at a concentration of 0.03%) was “did not show lens elasticity improving effect”.
